Consider 19 compounds from patent US20070276030A1, “Pyranobenzothiophene derivatives to treat infection with hepatitis c virus” (priority 2003, published 2007).

Where two headings read alike, the source gives them in different places. Bounds are passed on as bounds.

As a reminder, the IC50 is the point on the concentration scale where inhibition reaches its midpoint.

For test [1], the target named is T1, HCV RdRp NS5B d21BK (BK strain, genotype 1b) (Hepatitis C virus genotype 1b, UniProt P26663).
T1 construct: NS5B from the BK strain (genotype 1b) is expressed in E. coli as a protein in which the 21 C-terminal amino acids are replaced; made in house; host or cells: E. coli
Description: Hepatitis C polymerase (NS5B) inhibition, radioactive filter assay. Format: biochemical. As to conditions: for inhibition at 20 µM: read-out: HCV pol % inh at 20 μM. From the text:
The ability of the compounds of the present invention to inhibit Hepatitis C Polymerase was established by the following experimental procedure:
NS5B from the BK strain (genotype 1b) is expressed in E. coli as a protein in which the 21 C-terminal amino acids are replaced with a short linker and a hexahistidine tag ([…]). The purified protein is mixed with radioactive nucleotides and allowed to replicate a heteropolymeric RNA substrate, primed by an endogenous short hairpin, resulting in an approximately 760 nt product. The radioactive product is captured on a filter and quantitated after removal of the unincorporated nucleotides.
Dilute nucleotides 1:1000 to 10 μM (GTP and CTP) or 1:100 to 100 μM (ATP and UTP) into RNase free water.
(1) Compounds 10 μl at 10 μg/ml in 15% Dimethylsulfoxide (DMSO)
Add 20 μl enzyme mix into each well of the assay plate. Incubate compound and enzyme at room temperature for 15 minutes.
(3) Template Mix—Prepare Ahead
Spin down a tube of RNA (5 μg/tube stored in 75% ethanol and 0.3 M sodium acetate) in a microcentrifuge for 20 minutes at 4° C. One tube is enough for 1-1.5 plates. Remove as much ethanol from the tube as possible by inverting the tube. Be gentle, pellet RNA may not adhere to the tube. Vacuum dry the RNA. Resuspend the RNA by adding 1 ml of DEPC water, close the cap of the tube tightly. To dissolve RNA, incubate RNA solution on ice for ˜60 minutes and gently vortex. Spin briefly to ensure all RNA solution is down to the bottom of the tube before opening cap. Gently transfer RNA solution into a 5 ml or larger tube. Add another 3 ml of DEPC water (total 4 ml of volume).
Add the following volumes of reagents
Add 20 μl template mix per reaction (i.e. 20 ng of pOF per reaction or ˜3 nM). (4) Incubate reaction at room temperature (22-25° C.) for 2 hours. (5) Stop reaction by adding 50 μl of 170 mM EDTA.
Final concentration of EDTA is 85 mM.
(6) Prewet filters of Millipore multiscreen assay plate by adding […] of 0.5 M sodium phosphate buffer, pH 7.0 into each well. Let stand at room temperature for 2-3 minutes.
(7) Place the multiscreen filter plate onto a Millipore Manifold and turn on vacuum to allow buffer to flow through. Turn off vacuum. Transfer 80 μl of the reaction product into each well of the filter plate. Let stand for 2-3 minutes. Turn on vacuum to filter reaction product.
(8) Turn off vacuum. Add 200 μl of 0.5 M sodium phosphate buffer, pH 7.0 into each well to wash filter. Turn on vacuum.
Repeat step (8) three more times.
(9) Remove polypropylene bottom. Spot dry filter at the bottom with paper towel. Air dry filter plate on a bench for 1 hour. Add 40 μl Super Mix scintillant. Seal top of the plate with a tape. Place plate into a Packard carrier or micro-beta carrier.
(10) Count plate using a Packard Topcount or micro-beta counter. Count (for example using Program 10) for ^33P in Top count or ^33P program in micro-beta.
Percent inhibition is calculated after background subtraction as a percent reduction of activity relative to the positive control (average value of the plate excluding the negative controls). For the primary screen hits were chosen as showing ≧75% inhibition.
See. Ferrari et al. 1999. J. Virology 73:1649-1654: “Characterization of soluble Hepatitis C virus RNA-dependent RNA polymerase expressed in E. coli and Takamizawa et all 1991” and J. Virology 65:1105-1113: “Structure and characterization of the Hepatitis C virus genome isolated from human carriers,” both references are hereby incorporated by reference in their entireties, specifically methods of testing inhibition of Hepatitis C Polymerase with test compounds.

The conditions of test [2]: U.S. Pat. No. 4,021,451; cited from earlier work.

T1 sequence (P26663 2420-2989): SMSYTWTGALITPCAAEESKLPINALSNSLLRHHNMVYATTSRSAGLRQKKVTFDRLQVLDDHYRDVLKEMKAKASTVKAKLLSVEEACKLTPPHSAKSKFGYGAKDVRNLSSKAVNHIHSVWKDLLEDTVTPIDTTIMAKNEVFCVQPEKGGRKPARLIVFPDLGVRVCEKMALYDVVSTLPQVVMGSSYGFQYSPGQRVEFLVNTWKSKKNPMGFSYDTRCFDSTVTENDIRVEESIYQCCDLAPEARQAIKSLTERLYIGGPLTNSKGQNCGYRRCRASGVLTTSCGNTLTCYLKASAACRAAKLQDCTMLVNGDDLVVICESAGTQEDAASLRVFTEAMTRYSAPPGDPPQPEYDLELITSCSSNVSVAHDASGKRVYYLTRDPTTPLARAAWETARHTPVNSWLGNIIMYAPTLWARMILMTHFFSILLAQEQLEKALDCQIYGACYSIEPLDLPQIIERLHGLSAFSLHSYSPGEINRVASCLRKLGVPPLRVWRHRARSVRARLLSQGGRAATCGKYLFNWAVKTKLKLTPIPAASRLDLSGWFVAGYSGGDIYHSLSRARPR

For the compound `CCCC1(CC(=O)O)OCCc2c1sc1c(C)ccc(Br)c21` (stereo not drawn) [Example 1, (5-bromo-8-methyl-1-propyl-3,4-dihydro-1H-[1]benzothieno[2,3-c]pyran-1-yl)acetic acid], the IC50 in test [1] was 0.18 µM.
On the same count and under the same terms, next, `CCCC1(CC(=O)O)OCCc2c1sc1c(C)ccc(C#N)c21` (stereo not drawn) [Example 2, (5-cyano-8-methyl-1-propyl-3,4-dihydro-1H-[1]benzothieno[2,3-c]pyran-1-yl)acetic acid]: 17.7 µM.
Same read-out and setting: next, `CCC[C@]1(CC(=O)O)OCCc2c1sc1c(C)ccc(C#N)c21` [Example 3, [(1R)-5-cyano-8-methyl-1-propyl-3,4-dihydro-1H-[1]benzothieno[2,3-c]pyran-1-yl]acetic acid]: 0.62 µM; `CCC[C@@]1(CC(=O)O)OCCc2c1sc1c(C)ccc(C#N)c21` [Example 4, [(1S)-5-cyano-8-methyl-1-propyl-3,4-dihydro-1H-[1]benzothieno[2,3-c]pyran-1-yl]acetic acid]: 1.9 µM.
For `CCCC1(CC(=O)O)OCCc2c1sc1c(Cl)ccc(Cl)c21` (stereo not drawn) [Example 5, (5,8-dichloro-1-propyl-3,4-dihydro-1H-[1]benzothieno[2,3-c]pyran-1-yl)acetic acid], in test [1], the IC50 is over 20 µM and the inhibition at 20 µM was under 10%.
`CC1(CC(=O)O)OCCc2c1sc1c(Cl)ccc(Cl)c21` (stereo not drawn) [Example 6, (5,8-chloro-1-methyl-3,4-dihydro-1H-[1]benzothieno[2,3-c]pyran-1-yl)acetic acid]: the IC50 in test [1] (NS5B BK strain, read-out: HCV pol BK IC50) was 0.28 µM.
Take `CCCCC1(CC(=O)O)OCCc2c1sc1c(Cl)ccc(Cl)c21` (stereo not drawn) [Example 7, (1-butyl-5,8-dichloro-3,4-dihydro-1H-[1]benzothieno[2,3-c]pyran-1-yl)acetic acid]: the IC50 in test [1] was 0.32 µM.
Same read-out and setting: next, `CCC1(CC(=O)O)OCCc2c1sc1c(Cl)ccc(Cl)c21` (stereo not drawn) [Example 8, (5,8-dichloro-1-ethyl-3,4-dihydro-1H-[1]benzothieno[2,3-c]pyran-1-yl)acetic acid]: 0.17 µM; `CCCC1(CC(=O)O)OCCc2c1sc1c(C)cc(F)cc21` (stereo not drawn) [Example 9, (6-fluoro-8-methyl-1-propyl-3,4-dihydro-1H-[1]benzothieno[2,3-c]pyran-1-yl)acetic acid]: 2.9 µM; `CCCC1(CC(=O)O)OCCc2c1sc1c(C)cc(F)c(C#N)c21` (stereo not drawn) [Example 10, (5-cyano-6-fluoro-8-methyl-1-propyl-3,4-dihydro-1H-[1]benzothieno[2,3-c]pyran-1-yl)acetic acid]: 0.13 µM.
For the compound `CCC[C@@]1(CC(=O)O)OCCc2c1sc1c(C)cc(F)c(C#N)c21` [Example 12, [(1S)-5-cyano-6-fluoro-8-methyl-1-propyl-3,4-dihydro-1H-[1]benzothieno[2,3-c]pyran-1-yl]acetic acid], in test [1], the IC50 came to 5.4 µM.
As for `CC1(CC(=O)O)OCCc2c1sc1ccccc21` (stereo not drawn) [Example 13, (1-methyl-3,4-dihydro-1H-[1]benzothieno[2,3-c]pyran-1-yl)acetic acid], in test [1], the IC50 is over 20 µM and the inhibition at 20 µM was under 10%.
In the same order, the values of `CCC1(CC(=O)O)OCCc2c1sc1ccccc21` (stereo not drawn) [Example 14, (1-ethyl-3,4-dihydro-1H-[1]benzothieno[2,3-c]pyran-1-yl)acetic acid] are over 20 µM and under 10%.
Consider `CCCC1(CC(=O)O)OCCc2c1sc1ccccc21` (stereo not drawn) [Example 15, (1-propyl-3,4-dihydro-1H-[1]benzothieno[2,3-c]pyran-1-yl)acetic acid], for which, in test [1], the IC50 was over 20 µM and the inhibition at 20 µM was under 10%.
In the same order, the values of `CCCCC1(CC(=O)O)OCCc2c1sc1ccccc21` (stereo not drawn) [Example 16, (1-butyl-3,4-dihydro-1H-[1]benzothieno[2,3-c]pyran-1-yl)acetic acid] are over 20 µM and under 10%.
As to `O=C(O)CC1(c2ccccc2)OCCc2c1sc1ccccc21` (stereo not drawn) [Example 17, (1-phenyl-3,4-dihydro-1H-[1]benzothieno[2,3-c]pyran-1-yl)acetic acid], in test [1], the IC50 was over 20 µM and the inhibition at 20 µM was 27%.
As to `CC(C)C1(CC(=O)O)OCCc2c1sc1ccccc21` (stereo not drawn) [Example 18, (1-isopropyl-3,4-dihydro-1H-[1]benzothieno[2,3-c]pyran-1-yl)acetic acid], in test [1], the IC50 is over 20 µM and the inhibition at 20 µM is under 10%.
Consider `CCOC(=O)CC1(CC(=O)O)OCCc2c1sc1ccccc21` (stereo not drawn) [Example 19, [1-(2-ethoxy-2-oxoethyl)-3,4-dihydro-1H-[1]benzothieno[2,3-c]pyran-1-yl]acetic acid], for which, in test [1], the IC50 was over 20 µM and the inhibition at 20 µM was under 10%.
As to `CC1(c2ccc(CC(=O)O)cc2)OCCc2c1sc1ccccc21` (stereo not drawn) [[p-(3,4-dihydro-1-methyl-1H-[1]benzothieno[2,3-c]pyran-1-yl)phenyl]-acetic acid], the “biological activity such as antiinflammatory or antibacterial or antifungal activity” value in test [2] is “lacks any biological activity”.
